In the experiment the target is T1, AxlA (Aspergillus niger, UniProt A2QTU5).
T1 sequence (A2QTU5 19-736): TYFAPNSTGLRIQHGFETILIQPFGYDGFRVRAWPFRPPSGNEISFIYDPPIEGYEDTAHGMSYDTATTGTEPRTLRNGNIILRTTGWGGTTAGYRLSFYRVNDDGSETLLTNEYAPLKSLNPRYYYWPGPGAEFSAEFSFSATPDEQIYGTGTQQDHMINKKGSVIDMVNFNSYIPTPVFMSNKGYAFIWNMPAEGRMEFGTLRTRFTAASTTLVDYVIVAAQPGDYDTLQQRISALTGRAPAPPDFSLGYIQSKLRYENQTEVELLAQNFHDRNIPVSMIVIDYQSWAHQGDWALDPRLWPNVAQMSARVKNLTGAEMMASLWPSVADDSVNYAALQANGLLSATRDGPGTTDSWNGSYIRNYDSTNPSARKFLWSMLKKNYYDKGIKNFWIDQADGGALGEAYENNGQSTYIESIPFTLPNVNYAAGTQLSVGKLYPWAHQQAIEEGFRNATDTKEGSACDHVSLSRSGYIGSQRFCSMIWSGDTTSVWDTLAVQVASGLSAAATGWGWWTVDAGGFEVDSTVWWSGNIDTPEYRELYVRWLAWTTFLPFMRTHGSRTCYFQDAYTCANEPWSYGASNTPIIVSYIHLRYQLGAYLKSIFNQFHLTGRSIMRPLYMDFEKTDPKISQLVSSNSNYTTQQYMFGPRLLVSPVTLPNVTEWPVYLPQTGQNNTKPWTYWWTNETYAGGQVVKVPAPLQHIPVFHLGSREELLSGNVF
Nature of the experiment: pNPαX hydrolysis competition, nonlinear curve fitting. The format is biochemical. The settings on record: substrate p-nitrophenyl-α-xyloside 0-20 mM; reaction product.

Broadly, the Ki is the dissociation constant of the complex between target and ligand, obtained from inhibition or displacement. Higher therefore signals lower affinity.

With `OC1OC[C@@H](O)[C@H](O)[C@H]1O` (stereo partly shown) [Xyl], the Ki worked out at 13.7 mM.

Values taken from PMC3652757, “Enhancement of fermentable sugar yields by α-xylosidase supplementation of commercial cellulases” (Biotechnology for Biofuels, 2013).
